Experimental data published in ChEMBL document CHEMBL1914410, “Discovery of a series of potent and selective human H4 antagonists using ligand efficiency and libraries to explore structure-activity relationship (SAR)” (Bioorg Med Chem Lett, 2011).
Each block holds one molecule with its values, some of them ahead of it.

Assays:
[1] = test system: Liver microsomes; assay: Intrinsic clearance in rat liver microsomes; type: ADME, Microsome
[2] = biological target: T1, Histamine H3 receptor (Homo sapiens, UniProt Q9Y5N1); assay: Binding affinity to human histamine H3 receptor
[3] = Distribution coefficient, log D of the compound at pH 7.4; type: physicochemical; conditions: octanol/water
[4] = biological target: T2, Histamine H4 receptor (Homo sapiens, UniProt Q9H3N8); assay: Displacement of [3H]histamine from human histamine H4 receptor expressed in CHO cells after 90 mins by scintillation counting technique; type: cell-based
[5] = biological target: T2, Histamine H4 receptor; assay: Antagonist activity at human histamine H4 receptor at 15 uM by functional assay; set-up: scale not given: the % may be the effect or the level left
[6] = Metabolic stability in rat liver microsomes; type: ADME, Microsome; conditions: read-out: Stability
[7] = biological target: T2, Histamine H4 receptor; assay: Antagonist activity at human histamine H4 receptor by functional assay
[8] = Metabolic stability in human liver microsomes; type: ADME, Microsome; conditions: read-out: Stability
[9] = biological target: Histamine H2 receptor (Homo sapiens, UniProt P25021); assay: Antagonist activity at histamine H2 receptor; type: functional
[10] = biological target: Histamine H1 receptor (Homo sapiens, UniProt P35367); assay: Antagonist activity at histamine H1 receptor; type: functional
[11] = biological target: T1, Histamine H3 receptor; assay: Binding affinity to histamine H3 receptor
[12] = biological target: T1, Histamine H3 receptor; assay: Antagonist activity at histamine H3 receptor; type: functional

T1 sequence (Q9Y5N1 whole entry): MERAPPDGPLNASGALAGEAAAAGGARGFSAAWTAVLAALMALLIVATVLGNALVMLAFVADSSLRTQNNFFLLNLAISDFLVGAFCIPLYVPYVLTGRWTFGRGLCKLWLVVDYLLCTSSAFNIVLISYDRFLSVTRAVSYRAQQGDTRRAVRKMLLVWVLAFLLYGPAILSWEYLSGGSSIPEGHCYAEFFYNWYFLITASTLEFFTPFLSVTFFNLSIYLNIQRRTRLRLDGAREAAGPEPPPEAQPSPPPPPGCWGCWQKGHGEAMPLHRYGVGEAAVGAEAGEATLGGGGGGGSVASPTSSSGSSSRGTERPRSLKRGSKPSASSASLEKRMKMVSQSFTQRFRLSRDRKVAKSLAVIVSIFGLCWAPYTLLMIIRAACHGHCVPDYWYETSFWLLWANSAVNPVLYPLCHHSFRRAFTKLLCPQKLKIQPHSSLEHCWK
Sequence of Histamine H1 receptor (P35367 whole entry): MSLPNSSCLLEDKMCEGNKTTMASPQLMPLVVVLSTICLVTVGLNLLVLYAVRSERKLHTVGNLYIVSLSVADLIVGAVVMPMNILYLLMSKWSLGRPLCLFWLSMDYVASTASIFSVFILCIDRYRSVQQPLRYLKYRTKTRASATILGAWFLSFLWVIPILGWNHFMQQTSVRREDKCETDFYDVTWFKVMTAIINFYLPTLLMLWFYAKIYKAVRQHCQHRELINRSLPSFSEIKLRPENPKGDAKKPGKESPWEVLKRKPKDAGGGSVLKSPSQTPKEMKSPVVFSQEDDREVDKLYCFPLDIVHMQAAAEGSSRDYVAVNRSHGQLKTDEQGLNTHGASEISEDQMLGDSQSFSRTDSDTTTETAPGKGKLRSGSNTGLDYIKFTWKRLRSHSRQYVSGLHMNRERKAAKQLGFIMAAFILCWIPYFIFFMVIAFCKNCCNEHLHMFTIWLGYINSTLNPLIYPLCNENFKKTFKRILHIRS
Sequence of Histamine H2 receptor (P25021 whole entry): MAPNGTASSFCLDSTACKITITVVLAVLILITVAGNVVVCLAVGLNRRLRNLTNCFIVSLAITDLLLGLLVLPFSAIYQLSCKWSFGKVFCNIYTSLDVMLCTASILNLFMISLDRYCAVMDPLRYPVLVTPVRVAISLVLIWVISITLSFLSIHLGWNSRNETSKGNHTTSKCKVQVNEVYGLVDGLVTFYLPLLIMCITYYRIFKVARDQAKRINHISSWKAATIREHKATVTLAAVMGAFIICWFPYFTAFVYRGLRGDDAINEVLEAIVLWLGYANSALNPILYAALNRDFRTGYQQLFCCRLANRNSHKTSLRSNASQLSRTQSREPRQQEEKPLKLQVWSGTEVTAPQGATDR

Structure (SMILES): CN(C)CCNc1cc(NCC2CC2)ncn1
CL [1]: 143 µL/min

Structure (SMILES): CC(C)(C)CCNc1cc(N[C@H]2CCN(Cc3cccc(F)c3O)C2)ncn1
Ki ([4]; cho): 20000 nM

Structure (SMILES): CN1CCN(c2cc(C(=O)NCc3cccc(C(F)(F)F)c3)ncn2)CC1
Ki [4]: 34900 nM | Activity [5]: 57%

Structure (SMILES): CN1CCN(c2cc(NCc3ccccc3)ncn2)CC1
Ki [4]: 207 nM

Structure (SMILES): COc1cccc(C(O)(COc2ccccc2C)CN2CCN(C)CC2)c1 (stereo not given)
Ki [12]: 2500 nM | Ki [7]: > 2000 nM | Ki [4]: 3240 nM | Activity [5]: 60%

Structure (SMILES): COCc1ccc(CN2CC[C@H](Nc3cc(NCCC(C)(C)C)ncn3)C2)o1
Ki ([4]; cho): 20000 nM

Structure (SMILES): CN1CCN(c2cnc3ccccc3n2)CC1
logD [3]: 1.76 | Ki [4]: 1060 nM

Structure (SMILES): CN1CCN(C(=O)c2nc3cc(Cl)ccc3[nH]2)CC1
Ki [7]: 39.6 nM | Ki [4]: 47.7 nM

Structure (SMILES): CN1CCN(c2cc(NCC(C)(C)C)ncn2)CC1
Ki [2]: 825 nM | logD [3]: 1.75

Structure (SMILES): Cc1ccc(C#N)c(N2CC3CN(C)CC3C2)n1 (stereo not given)
logD [3]: -0.86 | Ki [4]: 930 nM

Structure (SMILES): CN1CCN(c2cc(NC3Cc4ccccc4C3)ncn2)CC1
Ki [4]: 212 nM

Structure (SMILES): CC(C)(C)CCNc1cc(NC2CCN(Cc3ccc(CO)o3)C2)ncn1 (stereo not given)
Ki [4]: 2110 nM | Activity [5]: 73%

Structure (SMILES): COc1ccccc1Cn1ccc(NCCc2cnc[nH]2)nc1=O
Ki [7]: > 2000 nM | Ki [4]: 1600 nM | Activity [5]: 65%

Structure (SMILES): CN1CCN(c2cc(N3[C@@H]4CCC[C@@H]3C4)ncn2)CC1
Ki [4]: 860 nM

Other lines, results leading:

Ki [2]: 54 nM | logD [3]: 1.09
Structure (SMILES): CN(C)[C@@H]1CCN(c2cc(NCC(C)(C)C)ncn2)C1

microsomal CLint [6]: 147 µL/min/mg | Ki [7]: 37 nM | logD [3]: 2.6 | microsomal CLint [8]: 16 µL/min/mg | Ki [9]: 3560 nM | Ki [10]: > 10000 nM | Ki [11]: 646 nM
Structure (SMILES): CN1CCN(c2cc(NCCC(C)(C)C)ncn2)CC1

logD [3]: 3.84 | Ki [4]: 601 nM
Structure (SMILES): CC(C)(C)CCNc1cc(N2CCN(C3CCCCC3)CC2)ncn1

Ki [12]: 8220 nM | Ki [7]: 572 nM | logD [3]: 0.6 | Ki [9]: 8820 nM | Ki [10]: > 40000 nM
Structure (SMILES): CC(C)(C)CCNc1cc(N[C@H]2CCNC2)ncn1

logD [3]: 0.96
Structure (SMILES): CN1CCCN(c2cc(NCC(C)(C)C)ncn2)CC1

logD [3]: 1.4
Structure (SMILES): CC(C)(C)CCNc1cc(N2CCNCC2)ncn1

Ki [4]: 593 nM
Structure (SMILES): CN1CC[C@H](Nc2cc(NCCC(C)(C)C)ncn2)C1

Ki [12]: 13600 nM
Structure (SMILES): CC(C)(C)CCNc1cc(N[C@@H]2CCNC2)ncn1
